In DBAASP:
Converted amounts (≈) assume the structure as drawn.

Assays:
Experiment in all cases: ≥ marks a high value that may be exact or a test limit, other limits are often not marked, values filed in µg/mL are converted to µM
[1] = system: Escherichia coli NCTC 10418
[2] = system: Pseudomonas aeruginosa PAO1
[3] = system: Staphylococcus aureus ATCC 2592
Bacillus subtilis = system: Bacillus subtilis
[4] = system: Candida albicans ATCC 2002
[5] = system: Pseudomonas aeruginosa ATCC 27853
[6] = system: Staphylococcus aureus ATCC 43300
Escherichia coli ML-35p = system: Escherichia coli ML-35p
[7] = system: Escherichia coli ATCC 25726
[8] = system: Staphylococcus aureus ATCC 25923
Acinetobacter baumannii = system: Acinetobacter baumannii
[9] = system: Candida albicans ATCC 90028
[10] = system: Escherichia coli KCTC 1682
[11] = system: Bacillus subtilis KCTC 3068
[12] = system: Staphylococcus epidermidis KCTC 1917
[13] = system: Pseudomonas aeruginosa KCTC 1637
[14] = system: Staphylococcus aureus KCTC 1621
[15] = system: Salmonella typhimurium KCTC 1926
[16] = system: Micrococcus luteus ATCC 9341
Escherichia coli K-12 = system: Escherichia coli K-12
[17] = system: Staphylococcus aureus USA 300

SMILES: CC[C@H](C)[C@H](NC(=O)[C@H](CCCCN)NC(=O)[C@H](C)NC(=O)[C@H](C)N)C(=O)N[C@H](C(=O)N[C@@H](CC(C)C)C(=O)N[C@@H](CC(N)=O)C(=O)N1CCC[C@H]1C(=O)N[C@@H](CCCCN)C(=O)N[C@@H](Cc1ccccc1)C(=O)N[C@@H](CCCN=C(N)N)C(=O)N[C@H]1CSSC[C@@H](C(=O)O)NC(=O)[C@H](Cc2ccccc2)NC(=O)[C@H](C)NC(=O)[C@H](C)NC(=O)[C@H](Cc2ccccc2)NC1=O)[C@@H](C)CC [AAKIILNPKFRCFAAFC]
- MIC [1]: ≥ 160 µM

SMILES: CC[C@H](C)[C@H](NC(=O)CNC(=O)[C@@H](NC(=O)[C@H](C)NC(=O)[C@H](CCSC)NC(=O)[C@H](CCCCN)NC(=O)[C@@H](NC(=O)[C@@H](NC(=O)[C@@H]1CCCN1C(=O)CNC(=O)[C@H](CC(C)C)NC(=O)[C@@H](N)Cc1ccccc1)[C@@H](C)CC)[C@@H](C)CC)[C@@H](C)O)C(=O)N[C@@H](CC(C)C)C(=O)N1CCC[C@H]1C(=O)N[C@H](C(=O)N[C@@H](C)C(=O)N[C@H](C(=O)N[C@H]1CSSC[C@@H](C(=O)O)NC(=O)[C@H](CCCCN)NC(=O)[C@H](CCCCN)NC(=O)[C@H](CC(C)C)NC(=O)CNC(=O)[C@H](CCCCN)NC1=O)[C@@H](C)CC)[C@@H](C)O [FLGPIIKMATGILPTAICKGLKKC]
- MIC [2]: 3.97 µM (≈ 9.99 µg/mL)
- MIC [3]: 0.993 µM (≈ 2.5 µg/mL)
- MIC (Bacillus subtilis): 7.95 µM (≈ 20 µg/mL)
- MIC [4]: 1.99 µM (≈ 5 µg/mL)
- MIC [5]: 1.99 µM (≈ 5 µg/mL)
- MIC [6]: 0.993 µM (≈ 2.5 µg/mL)
- MIC (Escherichia coli ML-35p): 19.9 µM (≈ 50 µg/mL)

SMILES: CC[C@H](C)[C@H](NC(=O)CN)C(=O)N[C@@H](Cc1c[nH]c2ccccc12)C(=O)N[C@@H](CC(=O)O)C(=O)N[C@H](C(=O)N[C@H](C(=O)N[C@@H](CCCCN)C(=O)N[C@@H](CO)C(=O)N[C@@H](CCSC)C(=O)NCC(=O)N[C@@H](CCCCN)C(=O)N[C@H](C(=O)N[C@@H](Cc1ccccc1)C(=O)N[C@@H](C)C(=O)NCC(=O)N[C@@H](C)C(=O)N[C@H](C(=O)N[C@@H](CC(C)C)C(=O)N[C@@H](CCC(N)=O)C(=O)N[C@@H](CC(N)=O)C(=O)N[C@@H](CC(C)C)C(N)=O)[C@@H](C)CC)C(C)C)[C@@H](C)CC)[C@@H](C)O [GIWDTIKSMGKVFAGAILQNL]
- MIC [7]: ≥ 50 µM
- MIC [8]: 12.5 µM (≈ 28.3 µg/mL)
- MIC (Acinetobacter baumannii): 12.5 µM (≈ 28.3 µg/mL)
- MIC [9]: 25 µM (≈ 56.5 µg/mL)

SMILES: CC[C@H](C)[C@H](NC(=O)CN)C(=O)N[C@@H](Cc1c[nH]c2ccccc12)C(=O)N[C@@H](CC(=O)O)C(=O)N[C@H](C(=O)N[C@H](C(=O)N[C@@H](CCCCN)C(=O)N[C@@H](CO)C(=O)N[C@@H](CCSC)C(=O)NCC(=O)N[C@@H](CCCCN)C(=O)N[C@H](C(=O)N[C@@H](Cc1ccccc1)C(=O)N[C@@H](C)C(=O)NCC(=O)N[C@@H](CCCCN)C(=O)N[C@H](C(=O)N[C@@H](CCCCN)C(=O)N[C@@H](CCC(N)=O)C(=O)N[C@@H](CC(N)=O)C(=O)N[C@@H](CC(C)C)C(N)=O)[C@@H](C)CC)C(C)C)[C@@H](C)CC)[C@@H](C)O [GIWDTIKSMGKVFAGKIKQNL]
- MIC [7]: ≥ 50 µM
- MIC [8]: > 100 µM
- MIC (Acinetobacter baumannii): 12.5 µM (≈ 29.2 µg/mL)
- MIC [9]: 25 µM (≈ 58.3 µg/mL)

SMILES: CC[C@H](C)[C@H](N)C(=O)NCC(=O)N[C@@H](CCCCN)C(=O)N[C@@H](CCCCN)C(=O)N[C@@H](Cc1ccccc1)C(=O)N[C@@H](CCCCN)C(=O)N[C@@H](CCCN=C(N)N)C(=O)N[C@H](C(=O)N[C@H](C(=O)N[C@@H](CCC(N)=O)C(=O)N[C@@H](CCCN=C(N)N)C(=O)N[C@H](C(=O)N[C@@H](CCCCN)C(=O)N[C@@H](CCCCN)C(=O)N[C@@H](Cc1ccccc1)C(=O)N[C@@H](CC(C)C)C(=O)N[C@@H](CCCN=C(N)N)C(=O)N[C@@H](CCCCN)C(=O)N[C@@H](CC(C)C)C(=O)O)[C@@H](C)CC)C(C)C)[C@@H](C)CC [IGKKFKRIVQRIKKFLRKL]
- MIC [10]: 8 µM (≈ 19.2 µg/mL)
- MIC [11]: 2 µM (≈ 4.8 µg/mL)
- MIC [12]: 2 µM (≈ 4.8 µg/mL)
- MIC [13]: 8 µM (≈ 19.2 µg/mL)
- MIC [14]: 4 µM (≈ 9.6 µg/mL)
- MIC [15]: 4 µM (≈ 9.6 µg/mL)

SMILES: CC[C@H](C)[C@H](N)C(=O)N[C@@H](CC(C)C)C(=O)NCC(=O)N[C@@H](Cc1c[nH]c2ccccc12)C(=O)N[C@@H](CCCCN)C(=O)N[C@@H](Cc1c[nH]c2ccccc12)C(=O)NCC(=O)N[C@@H](Cc1c[nH]c2ccccc12)C(=O)N[C@@H](Cc1c[nH]c2ccccc12)C(=O)NCC(=O)N[C@@H](Cc1c[nH]c2ccccc12)C(=O)N[C@@H](CCCN=C(N)N)C(=O)N[C@@H](CCCN=C(N)N)C(N)=O [ILGWKWGWWGWRR]
- MIC [16]: 0.4 µM (≈ 0.714 µg/mL)

SMILES: CC[C@H](C)[C@H](N)C(=O)N[C@@H](CC(C)C)C(=O)N1CCC[C@H]1C(=O)N[C@@H](Cc1c[nH]c2ccccc12)C(=O)N[C@@H](CCCCN)C(=O)N[C@@H](Cc1c[nH]c2ccccc12)C(=O)N1CCC[C@H]1C(=O)N[C@@H](Cc1c[nH]c2ccccc12)C(=O)N[C@@H](C)C(=O)N1CCC[C@H]1C(=O)N[C@@H](Cc1c[nH]c2ccccc12)C(=O)N[C@@H](CCCN=C(N)N)C(=O)N[C@@H](CCCN=C(N)N)C(N)=O [ILPWKWPWAPWRR]
- MIC [16]: 0.8 µM (≈ 1.43 µg/mL)

SMILES: CC[C@H](C)[C@H](N)C(=O)N[C@@H](CC(C)C)C(=O)N1CCC[C@H]1C(=O)N[C@@H](Cc1c[nH]c2ccccc12)C(=O)N[C@@H](CCCCN)C(=O)N[C@@H](Cc1c[nH]c2ccccc12)C(=O)N1CCC[C@H]1C(=O)N[C@@H](Cc1c[nH]c2ccccc12)C(=O)N[C@@H](Cc1c[nH]c2ccccc12)C(N)=O [ILPWKWPWW]
- MIC [16]: 1.6 µM (≈ 2.1 µg/mL)

SMILES: CC[C@H](C)[C@H](NC(=O)[C@@H](N)CCCCN)C(=O)N[C@@H](CCCCN)C(=O)N[C@@H](CC(C)C)C(=O)N[C@@H](Cc1ccccc1)C(=O)N[C@@H](CCCCN)C(=O)N[C@@H](CCCCN)C(=O)N[C@@H](Cc1c[nH]c2ccccc12)C(=O)N1CCC[C@H]1C(=O)N[C@@H](CCCCN)C(=O)N[C@@H](Cc1ccccc1)C(=O)N[C@@H](CC(C)C)C(=O)N[C@@H](Cc1cnc[nH]1)C(=O)N[C@@H](CC(C)C)C(=O)N[C@@H](C)C(=O)N[C@@H](CCCCN)C(=O)N[C@@H](CCCCN)C(=O)N[C@@H](Cc1ccccc1)C(N)=O [KIKLFKKWPKFLHLAKKF]
- MIC [10]: 2 µM (≈ 4.6 µg/mL)
- MIC [11]: 1 µM (≈ 2.3 µg/mL)
- MIC [12]: 1 µM (≈ 2.3 µg/mL)
- MIC [13]: 2 µM (≈ 4.6 µg/mL)
- MIC [14]: 2 µM (≈ 4.6 µg/mL)
- MIC [15]: 2 µM (≈ 4.6 µg/mL)

SMILES: CC[C@H](C)[C@H](NC(=O)[C@H](CCCCN)NC(=O)[C@H](CCC(N)=O)NC(=O)[C@@H](NC(=O)[C@@H](NC(=O)[C@H](CCCCN)NC(=O)[C@@H](N)CCCCN)[C@@H](C)CC)C(C)C)C(=O)N[C@@H](CCCCN)C(=O)N[C@@H](CC(=O)O)C(=O)N[C@@H](Cc1ccccc1)C(=O)N[C@@H](CC(C)C)C(=O)N[C@@H](CCCCN)C(N)=O [KKIVQKIKDFLK]
- MIC (Escherichia coli K-12): ≥ 106 µM

SMILES: CC[C@H](C)[C@H](NC(=O)[C@H](CC(C)C)NC(=O)CNC(=O)[C@H](CO)NC(=O)[C@@H](NC(=O)[C@H](CC(C)C)NC(=O)[C@@H](N)CC(N)=O)C(C)C)C(=O)N[C@@H](CCC(=O)O)C(=O)N[C@@H](C)C(=O)N[C@@H](CCCNC(=N)N)C(=O)N[C@@H](CCCCN)C(=O)N[C@@H](Cc1ccc(O)cc1)C(=O)N[C@@H](CC(C)C)C(=O)N[C@@H](CCC(=O)O)C(=O)N[C@@H](CCC(N)=O)C(=O)N[C@@H](CC(C)C)C(=O)N[C@@H](Cc1cnc[nH]1)C(=O)N[C@@H](CCCNC(=N)N)C(=O)N[C@@H](CCCCN)C(=O)N[C@@H](CC(C)C)C(=O)N[C@@H](CCCCN)C(=O)N[C@@H](CC(N)=O)C(=O)N[C@@H](CCCNC(=N)N)C(=O)N[C@@H](CCCCN)C(=O)N[C@H](C(=O)O)C(C)C [NLVSGLIEARKYLEQLHRKLKNRKV]
- MIC [17]: ≥ 92 µM
- MIC (Escherichia coli K-12): ≥ 92 µM

SMILES: CC[C@H](C)[C@H](NC(=O)[C@H](CC(C)C)NC(=O)[C@@H]1CCCN1C(=O)[C@H](Cc1ccccc1)NC(=O)[C@H](CCCCN)NC(=O)[C@H](Cc1ccccc1)NC(=O)[C@@H]1CCCN1C(=O)[C@H](Cc1ccccc1)NC(=O)[C@H](Cc1ccccc1)NC(=O)[C@@H]1CCCN1C(=O)[C@H](Cc1ccccc1)NC(=O)[C@H](CCCN=C(N)N)NC(=O)[C@@H](N)CCCN=C(N)N)C(N)=O [RRFPFFPFKFPLI]
- MIC [16]: 0.4 µM (≈ 0.684 µg/mL)
